Measured values as given in paper PMC12251307, “One-Pot Synthesis of Novel Pyrimidine Derivatives with Potential Antidiabetic Activity Through Dual α-Glucosidase and α-Amylase Inhibitors” (Molecules, 2025).

How the values were obtained:
α-amylase = α-amylase activity assay (colorimetric kit); assay type: biochemical; settings: IC50 ± SD, n = 5; acarbose as standard drug
Protocol: (§1) All chemicals were supplied from Sigma-Aldrich (St. Louis, MO, USA). Melting points were determined via the Stuart SMP10 Digital Advanced MP apparatus (Cole-Parmer Ltd., Stone, UK) and are uncorrected. FTIR spectra were carried out on PerkinElmer (FTIR spectrometer, PerkinElmer Inc., Waltham, MA, USA), which mixed without using anhydrous KBr. The NMR spectra were recorded by JEOL RESONANCE spectrometer (Akishima, Japan) 500 MHZ by using DMSO-d6 as the solvent and chemical shifts (δ) and were recorded in parts per million (ppm) using tetramethyl silane (TMS) as the internal standard. The mass spectra were carried out on LC/MS spectroscopy (LCMS-8040 Shimadzu, Kyoto, Japan, model CAT-30A). Serial no. L20574900241 AE, 220–240 v~50/60 HZ 300 VA was used to record LCMS spectral data for samples. Elemental microanalysis was done on a Carlo Erba analyzer model 110 (Carlo Erba Instruments, Milan, Italy). Also used were α-amylase Assay Kit (Colorimetric) […] (Abcam, Cambridge, MA, USA), α-glucosidase Activity Assay Kit (Colorimetric) […] (Abcam, Cambridge, MA, USA), and Elisa: BioTek (Winooski, VT, USA) introduces Synergy Neo2 high performance Multi-Mode Microplate Reader.
The % inhibition was calculated as follows:% Inhibition = (Absorbancecontrol − Absorbancecompound) × 100/Absorbancecontrol

α-glucosidase = α-glucosidase activity assay (colorimetric kit); assay type: biochemical; settings: IC50 ± SD, n = 5; acarbose as standard drug
Protocol: as §1
The α-glucosidase activity assay was conducted as we reported earlier. Samples (50 μL) were added to 96 wells, and the volume was adjusted to 100 μL/well with an assay buffer. For the reaction, 50 μL of reaction mix for each reaction were performed by adding assay buffer 47 μL and substrate mix 3 μL.

Structure (SMILES) | IC50 (α-amylase) [µM] | IC50 (α-glucosidase) [µM]
COc1cc(NNC(=S)Nc2cccc(F)c2)nc(N)n1 [Compound 4, 2-(2-Amino-6-methoxypyrimidin-4-yl)-N-(3-fluorophenyl)hydrazine Carbothioamide] | 11.1 ± 0.12 | 12.16 ± 0.12
COc1cc(NNC(=S)Nc2cccc(Cl)c2)nc(N)n1 [Compound 6, 2-(2-Amino-6-methoxypyrimidin-4-yl)-N-(3-chlorophenyl) Hydrazine Carbothioamide] | 15.17 ± 0.07 | 16.13 ± 0.11
COc1cc(NNC(=S)Nc2cccc(Br)c2)nc(N)n1 [Compound 9, 2-(2-Amino-6-methoxypyrimidin-4-yl)-N-(3-bromophenyl)-hydrazine Carbothioamide] | 18.16 ± 0.08 | 19.11 ± 0.11
COc1cc(NNC(=S)Nc2cccc([N+](=O)[O-])c2)nc(N)n1 [Compound 11, 2-(2-Amino-6-methoxypyrimidin-4-yl)-N-(3-nitrophenyl)hydrazine Carbothioamide] | 21.14 ± 0.12 | 22.11 ± 0.13
COc1cccc(NC(=S)NNc2cc(OC)nc(N)n2)c1 [Compound 14, 2-(2-Amino-6-methoxypyrimidin-4-yl)-N-(3-methoxyphenyl)-hydrazine Carbothioamide] | 33.18 ± 0.14 | 30.12 ± 0.13
COc1cc(NNC(=S)Nc2ccc(C)cc2)nc(N)n1 [Compound 16, 2-(2-Amino-6-methoxypyrimidin-4-yl)-N-(p-tolyl)hydrazine Carbothioamide] | 34.24 ± 0.16 | 36.14 ± 0.12
COc1cc(NNC(=S)Nc2cccc(C#N)c2)nc(N)n1 [Compound 17, 2-(2-Amino-6-methoxypyrimidin-4-yl)-N-(3-cyanophenyl)hydrazine Carbothioamide] | 40.16 ± 0.11 | 42.19 ± 0.13
